Data as given in patent US9676754B2, “Triazolone compounds and uses thereof” (Inception 2, Inc., priority 2012, dated 2017).

Target: T1, Human PPARα (Homo sapiens, UniProt Q07869)
T1 construct: host or cells: proprietary non-human mammalian cells
T1 sequence (Q07869 1-468): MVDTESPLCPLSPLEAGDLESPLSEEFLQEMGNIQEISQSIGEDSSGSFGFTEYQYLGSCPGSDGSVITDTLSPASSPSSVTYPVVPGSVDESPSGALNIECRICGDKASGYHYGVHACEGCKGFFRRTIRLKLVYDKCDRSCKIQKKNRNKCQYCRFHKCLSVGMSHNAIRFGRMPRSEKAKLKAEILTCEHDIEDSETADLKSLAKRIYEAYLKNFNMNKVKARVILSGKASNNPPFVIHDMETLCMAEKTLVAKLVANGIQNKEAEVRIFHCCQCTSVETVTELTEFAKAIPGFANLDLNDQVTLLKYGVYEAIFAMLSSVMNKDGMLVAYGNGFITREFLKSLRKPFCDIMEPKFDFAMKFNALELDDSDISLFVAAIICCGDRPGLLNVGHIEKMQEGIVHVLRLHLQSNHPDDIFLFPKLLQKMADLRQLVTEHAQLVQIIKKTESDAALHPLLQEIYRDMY
Assay: Human PPARα Reporter Assay (luciferase)
Type: cell-based
Details: antagonist activity, luciferase reporter cells, overnight incubation; read-out: Human PPARα Reporter Assay-Luciferase IC50
Procedure: Human PPARα Reporter Assay
The screening of test compounds for agonist or antagonist activities against human PPARα receptors was performed using a commercial kit, Human PPARα Reporter Assay System (Indigo Biosciences, Cat. #IB00111).
This nuclear receptor assay system utilizes proprietary non-human mammalian cells engineered to provide constitutive, high-level expression of Human PPARα. Because these cells incorporate a PPARα-responsive luciferase reporter gene, quantifying expressed luciferase activity provides a sensitive surrogate measure of PPARα activity in the treated cells. The primary application of this reporter assay system is in the screening of test samples to quantify any functional activity, either agonist or antagonist, that they may exert against human PPARα. […] Briefly, the reporter cells are dispensed into wells of the assay plate and then immediately dosed with test compounds. Following an overnight incubation, the treatment media are discarded and Luciferase Detection Reagent (LDR) is added. The intensity of light emission from the ensuing luciferase reaction provides a sensitive measure that is directly proportional to the relative level of PPARα activation in the reporter cells.

| Compound | IC50 |
| --- | --- |
| CCOc1ccc(-c2cc(CCCc3nn(Cc4ccc(C(C)(C)C)cc4)c(=O)n3CC)ncn2)cc1CC(=O)O [Example 27, 2-(5-(6-(3-(1-(4-(tert-Butyl)benzyl)-4-ethyl-5-oxo-4,5-dihydro-1H-1,2,4-triazol-3-yl)propyl)pyrimidin-4-yl)-2-ethoxyphenyl)acetic acid] | 3430 nM |
| CCn1c(CCCc2cccc(-c3ccc(CC(=O)O)c(OC)c3)c2)nn(Cc2ccc(C(C)(C)C)cc2)c1=O [Example 28, (3′-(3-(1-(4-(tert-Butyl)benzyl)-4-ethyl-5-oxo-4,5-dihydro-1H-1,2,4-triazol-3-yl)propyl)-3-methoxy-[1,1′-biphenyl]-4-yl)acetic acid] | 140 nM |
| CCOc1cc(-c2cccc(CCCc3nn(Cc4ccc(C(C)(C)C)cc4)c(=O)n3CC)c2)ccc1CC(=O)O [Example 29, (3′-(3-(1-(4-(tert-Butyl)benzyl)-4-ethyl-5-oxo-4,5-dihydro-1H-1,2,4-triazol-3-yl)propyl)-3-ethoxy-[1,1′-biphenyl]-4-yl)acetic acid] | 59 nM |
| CCCOc1cc(-c2cccc(CCCc3nn(Cc4ccc(C(C)(C)C)cc4)c(=O)n3CC)c2)ccc1CC(=O)O [Example 30, (3′-(3-(1-(4-(tert-Butyl)benzyl)-4-ethyl-5-oxo-4,5-dihydro-1H-1,2,4-triazol-3-yl)propyl)-3-propoxy-[1,1′-biphenyl]-4-yl)acetic acid] | 36 nM |
